# Source: patent US10065941B2, “Aminotriazine derivative and pharmaceutical composition comprising the same” (Shionogi & Co., Ltd., priority 2013, dated 2018)
# Target: human P2X3 receptor (Homo sapiens (Human), UniProt P56373)
# Test: Evaluation of human P2X3 receptor inhibitory activity (Test Example 1)
# Assay type: cell-based
# Conditions: C6BU-1 cell transfected with human P2X3 receptor gene, FLIPR 384
# Outline: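 FLIPR calcium read-out: signal taken as peak fluorescence after ATP addition divided by starting fluorescence, and IC50 calculated from it. Compound added 5 min before 150 nM ATP solution (pre-dispense stock) to Fluo-3-AM-loaded C6BU-1 cells stably transfected with human P2X3; HEPES buffer pH 7.5 with probenecid.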
# Chain of human P2X3 receptor (P56373 whole entry): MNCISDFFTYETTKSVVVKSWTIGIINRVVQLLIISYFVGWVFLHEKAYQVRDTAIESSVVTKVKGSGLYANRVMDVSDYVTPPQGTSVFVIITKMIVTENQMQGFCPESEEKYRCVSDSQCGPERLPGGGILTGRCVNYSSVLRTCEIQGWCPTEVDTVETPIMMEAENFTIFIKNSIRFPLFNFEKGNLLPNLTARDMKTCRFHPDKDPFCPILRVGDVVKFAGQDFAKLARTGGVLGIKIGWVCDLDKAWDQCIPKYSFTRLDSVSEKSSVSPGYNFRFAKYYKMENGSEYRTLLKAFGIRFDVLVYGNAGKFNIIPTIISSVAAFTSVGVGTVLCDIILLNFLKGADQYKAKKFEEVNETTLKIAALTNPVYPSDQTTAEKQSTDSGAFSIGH
row,SMILES,IC50 [nM]
1,Cc1ccc(Cn2c(=O)n(CC(C)(C)C(=O)O)c(=O)[nH]/c2=N\c2ccc(Oc3ccc(C)cn3)cc2)cc1 [Compound I-114],6
2,COC(=O)[C@@H](C)Cn1c(=O)[nH]/c(=N\c2ccc(Oc3cc(Cl)ccn3)cc2)n(Cc2ccc(Cl)cc2)c1=O [Compound I-060],24
3,COC(=O)[C@@H](C)Cn1c(=O)[nH]/c(=N\c2ccc(Oc3ncns3)cc2)n(Cc2ccc(Cl)cc2)c1=O [Compound R-134],5
4,O=C(O)C1(Cn2c(=O)[nH]/c(=N\c3ccc(Oc4ncccc4F)cc3)n(Cc3ccc(Cl)cc3)c2=O)CC1 [Compound I-067],11
5,Cc1nc(Oc2ccc(/N=c3\[nH]c(=O)n(C[C@H](C)C(=O)O)c(=O)n3Cc3ccc(Cl)cc3)cc2)no1 [Compound R-114],39
6,Cc1ccc(Oc2ccc(/N=c3\[nH]c(=O)n(C[C@H](C)C(=O)O)c(=O)n3Cc3ccc(Cl)cc3)cc2)nc1 [Compound I-054],5
7,COC(=O)[C@@H](C)Cn1c(=O)[nH]/c(=N\c2ccc(Oc3ncccc3OC)cc2)n(Cc2ccc(Cl)cc2)c1=O [Compound I-153],13
8,Cc1cc(/N=c2\[nH]c(=O)n([C@@H](C)[C@@H](C)C(=O)O)c(=O)n2Cc2ccc(Cl)cc2)ccc1Oc1cnccn1 [Compound R-161],10
9,C[C@@H](Cn1c(=O)[nH]/c(=N\c2ccc(Oc3ccc(CF)cn3)cc2)n(Cc2ccc(Cl)cc2)c1=O)C(=O)O [Compound I-232],5
10,CNC(=O)Cn1c(=O)[nH]/c(=N\c2ccc(Oc3ccccn3)cc2)n(Cc2ccc(Cl)cc2)c1=O [Compound R-241],9
11,Cc1cc(/N=c2\[nH]c(=O)n(CC(C)(C)C(=O)O)c(=O)n2Cc2ccc(Cl)cc2)ccc1Oc1ccccn1 [Compound I-219],12
12,COC(=O)C(C)(C)Cn1c(=O)[nH]/c(=N\c2ccc(Oc3ccnc(C#N)c3)cc2)n(Cc2ccc(Cl)cc2)c1=O [Compound R-100],6
13,CCOC(=O)[C@H]1C[C@@H](n2c(=O)[nH]/c(=N\c3ccc(Oc4ccc(F)cn4)cc3)n(Cc3ccc(C)cc3)c2=O)C1 [Compound I-177],6
14,Cc1ccc(Cn2c(=O)n([C@@H](C)[C@@H](C)C(=O)O)c(=O)[nH]/c2=N\c2ccc(Oc3ccccn3)cc2)cc1 [Compound I-195],7
15,C[C@@H](Cn1c(=O)[nH]/c(=N\c2ccc(Oc3ncccc3C#N)cc2)n(Cc2ccc(Cl)cc2)c1=O)C(=O)O [Compound I-047],22
16,COC(=O)C(C)(C)Cn1c(=O)[nH]/c(=N\c2ccc(Oc3cccc(Cl)n3)cc2)n(Cc2ccc(C)cc2)c1=O [Compound I-116],7
17,COC(=O)[C@@H](C)Cn1c(=O)[nH]/c(=N\c2ccc(Oc3cccc(CO)n3)cc2)n(Cc2ccc(C)cc2)c1=O [Compound I-246],14
18,O=c1[nH]/c(=N\c2ccc(Oc3ccccn3)cc2)n(Cc2ccc(Cl)cc2)c(=O)n1[C@H]1C[C@H](C(=O)O)C1 [Compound I-174],6
19,COC(=O)C(C)(C)Cn1c(=O)[nH]/c(=N\c2ccc(Oc3cnc(C(F)(F)F)cn3)cc2)n(Cc2ccc(Cl)cc2)c1=O [Compound R-036],11
20,Cc1ccc(Cn2c(=O)n(CC(C)(C)C(=O)O)c(=O)[nH]/c2=N\c2ccc(Oc3ccc(OC(F)F)cn3)cc2)cc1 [Compound I-136],7

row,SMILES,IC50 [nM]
1,CC(C)(Cn1c(=O)[nH]/c(=N\c2ccc(Oc3cccnn3)cc2)n(Cc2ccc(Cl)cc2)c1=O)C(=O)O [Compound R-151],11
2,Cc1cc(/N=c2\[nH]c(=O)n([C@@H](C)[C@@H](C)C(=O)O)c(=O)n2Cc2ccc(Cl)cc2)ccc1Oc1cncc(F)c1 [Compound R-188],9
3,COC(=O)C(C)(C)Cn1c(=O)[nH]/c(=N\c2ccc(Oc3cnc(Cl)cn3)cc2)n(Cc2ccc(Cl)cc2)c1=O [Compound R-025],5
4,CC1(C)OC[C@@H](Cn2c(=O)[nH]/c(=N\c3ccc(Oc4ccccn4)cc3)n(Cc3ccc(Cl)cc3)c2=O)O1 [Compound R-247],5
5,CCOC(=O)c1cnc(Oc2ccc(/N=c3\[nH]c(=O)n(CC)c(=O)n3Cc3ccc(Cl)cc3)cc2)cc1Cl [Compound R-053],52
6,Cc1ccc(Cn2c(=O)n(CCC(=O)O)c(=O)[nH]/c2=N\c2ccc(Oc3ccc(Cl)cn3)cc2)cc1 [Compound R-285],6
7,C[C@H](CC(=O)O)n1c(=O)[nH]/c(=N\c2ccc(Oc3ccc(F)cn3)cc2)n(Cc2ccc(Cl)cc2)c1=O [Compound I-165],15
8,O=C(O)CCn1c(=O)[nH]/c(=N\c2ccc(Oc3ccccn3)c(Cl)c2)n(Cc2ccc(Cl)cc2)c1=O [Compound R-297],8
9,COC(=O)[C@@H](C)Cn1c(=O)[nH]/c(=N\c2ccc(Oc3ccccn3)c(F)c2)n(Cc2ccc(C)cc2)c1=O [Compound I-204],4
10,O=c1[nH]/c(=N\c2ccc(Oc3ncccc3F)cc2)n(Cc2ccc(Cl)cc2)c(=O)n1CC1(CO)COC1 [Compound R-083],7
11,Cc1cccnc1Oc1ccc(/N=c2\[nH]c(=O)n(C[C@H](C)C(=O)O)c(=O)n2Cc2ccc(Cl)cc2)cc1 [Compound I-077],10
12,COc1nccc(Oc2ccc(/N=c3\[nH]c(=O)n([C@@H](C)[C@@H](C)C(=O)O)c(=O)n3Cc3ccc(Cl)cc3)cc2)n1 [Compound R-010],10
13,CC(O)c1ccc(Oc2ccc(/N=c3\[nH]c(=O)n(CCC(=O)O)c(=O)n3Cc3ccc(Cl)cc3)cc2)nc1 (centres unmarked) [Compound R-306],14
14,COC(=O)C(C)(C)Cn1c(=O)[nH]/c(=N\c2ccc(Oc3ncc(C)s3)cc2)n(Cc2ccc(C)cc2)c1=O [Compound R-215],6
15,COC(=O)[C@@H](C)Cn1c(=O)[nH]/c(=N\c2ccc(Oc3ccccn3)cc2)n(Cc2ccc(Cl)s2)c1=O [Compound I-271],10
16,COC(=O)[C@H](C)Cn1c(=O)[nH]/c(=N\c2ccc(Oc3ccccn3)cc2)n(Cc2ccc(Cl)cc2)c1=O [Compound I-131],8
17,C[C@@H](C(=O)O)[C@H](C)n1c(=O)[nH]/c(=N\c2ccc(Oc3cnc(Cl)cn3)cc2)n(Cc2ccc(Cl)cc2)c1=O [Compound R-162],6
18,Cc1nccc(Oc2ccc(/N=c3\[nH]c(=O)n(CC(C)(C)C(=O)O)c(=O)n3Cc3ccc(Cl)cc3)cc2)n1 [Compound R-045],14
19,C[C@@H](Cn1c(=O)[nH]/c(=N\c2ccc(Oc3cnc(Cl)cn3)cc2)n(Cc2ccc(Cl)cc2)c1=O)C(=O)O [Compound R-014],5
20,COC(=O)[C@@H](C)Cn1c(=O)[nH]/c(=N\c2ccc(Oc3ncccn3)cc2)n(Cc2ccc(Cl)cc2)c1=O [Compound R-059],5

row,SMILES,IC50 [nM]
1,COC(=O)[C@@H](C)Cn1c(=O)[nH]/c(=N\c2ccc(Oc3cccc(OC)n3)cc2)n(Cc2ccc(C)cc2)c1=O [Compound I-221],11
2,C[C@@H](Cn1c(=O)[nH]/c(=N\c2ccc(Oc3ccc(C(F)(F)F)nn3)cc2)n(Cc2ccc(Cl)cc2)c1=O)C(=O)O [Compound R-030],8
3,C[C@@H](Cn1c(=O)[nH]/c(=N\c2ccc(Oc3ccccn3)cc2)n(C[C@H]2CC[C@H](C)CC2)c1=O)C(=O)O [Compound I-145],6
4,COC(=O)[C@@H](C)Cn1c(=O)[nH]/c(=N\c2ccc(Oc3cccnn3)cc2)n(Cc2ccc(Cl)cc2)c1=O [Compound R-119],5
5,COC(=O)[C@@H](C)Cn1c(=O)[nH]/c(=N\c2ccc(Oc3ccccn3)cc2)n(Cc2ccc(CF)cc2)c1=O [Compound I-206],10
6,COC(=O)[C@H](C)[C@H](C)n1c(=O)[nH]/c(=N\c2ccc(Oc3cc(C)ccn3)cc2)n(Cc2ccc(Cl)cc2)c1=O [Compound I-107],31
7,Cc1ccc(Cn2c(=O)n(C[C@H](C)C(=O)O)c(=O)[nH]/c2=N\c2ccc(Oc3ncc(C)s3)cc2)cc1 [Compound R-218],6
8,CCn1c(=O)nc(Nc2ccc3nc(C(C)C)oc3c2)n(Cc2ccc(Cl)cc2)c1=O [Compound R-007],301
9,COc1ccc(Oc2ccc(/N=c3\[nH]c(=O)n(C[C@H](C)C(=O)O)c(=O)n3Cc3ccc(Cl)cc3)cc2)nn1 [Compound R-085],6
10,C[C@@H](Cn1c(=O)[nH]/c(=N\c2ccc(Oc3cccc(F)n3)cc2)n(Cc2ccc(CF)cc2)c1=O)C(=O)O [Compound I-217],11
11,COC(=O)[C@@H](C)Cn1c(=O)[nH]/c(=N\c2ccc(Oc3ccc(CF)nc3)cc2)n(Cc2ccc(Cl)cc2)c1=O [Compound I-239],6
12,Cc1ccc(Cn2c(=O)n(C[C@H](C)C(=O)O)c(=O)[nH]/c2=N\c2ccc(Oc3cccc(CF)n3)cc2)cc1 [Compound I-261],8
13,CC(C)(Cn1c(=O)[nH]/c(=N\c2ccc(Oc3ncccc3C(F)(F)F)cc2)n(Cc2ccc(Cl)cc2)c1=O)C(=O)O [Compound I-033],23
14,"CCn1c(=O)[nH]/c(=N\c2ccc(Oc3ncc(C(=O)O)cc3Cl)cc2)n(Cc2ccc(Cl)cc2)c1=O [Compound R-016, 1-(4-chlorobenzyl)-6-[4-(3-chloro-5-hydroxycarbonyl-2-pyridyloxy)phenylimino]-3-ethyl-1,3,5-triazinane-2,4-dione]",6
15,CC1(Cn2c(=O)[nH]/c(=N\c3ccc(Oc4ccccn4)cc3)n(Cc3ccc(Cl)cc3)c2=O)COC(C)(C)OC1 [Compound R-236],4
16,CC(C)(Cn1c(=O)[nH]/c(=N\c2ccc(Oc3cnccn3)c(F)c2)n(Cc2ccc(Cl)cc2)c1=O)C(=O)O [Compound R-056],10
17,COC(=O)CCn1c(=O)[nH]/c(=N\c2ccc(Oc3ccccn3)cc2)n(Cc2ccc(Cl)cc2)c1=O [Compound R-225],4
18,"NC(=O)Cn1c(=O)[nH]/c(=N\c2ccc(Oc3ccccn3)cc2)n(Cc2ccc(Cl)cc2)c1=O [Compound R-240, 1-(4-chlorobenzyl)-3-(carbamoylmethyl)-6-[4-(2-pyridyloxy)phenylimino]-1,3,5-triazinane-2,4-dione]",11
19,CC(=O)c1ccc(Oc2ccc(/N=c3\[nH]c(=O)n(C[C@H](C)C(=O)O)c(=O)n3Cc3ccc(C)cc3)cc2)nc1 [Compound I-260],5
